Columns and labels:
Assay in all cases: Kinase inhibitor library screening, PrestoBlue cell viability, 1 or 10 μM, 72 h
501Mel cells (parental) = settings: 72 h
Outline: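 Kinase inhibitors added at two fixed concentrations; 72 h exposure; PrestoBlue readout; % viability vs untreated; n ≥ 2 per line.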

[1] = tested on: 501Mel-GP cells (Dabrafenib-resistant); settings: 72 h
[2] = tested on: 501Mel-XP cells (Vemurafenib-resistant); settings: 72 h
A375 cells (parental) = tested on: A375 cells (parental)
[3] = tested on: A375-GP cells (Dabrafenib-resistant)
[4] = tested on: A375-XP cells (Vemurafenib-resistant)
IGR37 cells (parental) = tested on: IGR37 cells (parental)
[5] = tested on: IGR37-GP cells (Dabrafenib-resistant)
[6] = tested on: IGR37-XP cells (Vemurafenib-resistant)
[7] = IGR37 Parental, 1μΜ, 72 h, in %
[8] = IGR37 Parental, 10μΜ, 72 h, in %

Compound	Cell viability in kinase inhibitor library screening, 501Mel Parental, 1μΜ (501Mel cells (parental); 501Mel Parental, 1μΜ, in %)	Cell viability in kinase inhibitor library screening, 501Mel Parental, 10μΜ (501Mel cells (parental); 501Mel Parental, 10μΜ, in %)	Cell viability in kinase inhibitor library screening, 501Mel GP, 1μΜ ([1]; 501Mel GP, 1μΜ, in %)	Cell viability in kinase inhibitor library screening, 501Mel GP, 10μΜ ([1]; 501Mel GP, 10μΜ, in %)	Cell viability in kinase inhibitor library screening, 501Mel XP, 1μΜ ([2]; 501Mel XP, 1μΜ, in %)	Cell viability in kinase inhibitor library screening, 501Mel XP, 10μΜ ([2]; 501Mel XP, 10μΜ, in %)	Cell viability in kinase inhibitor library screening, A375 Parental, 10μΜ (A375 cells (parental); A375 Parental, 10μΜ, 72 h)	Cell viability in kinase inhibitor library screening, A375 Parental, 1μΜ (A375 cells (parental); A375 Parental, 1μΜ, 72 h)	Cell viability in kinase inhibitor library screening, A375 GP, 1μΜ ([3]; A375 GP, 1μΜ, 72 h)	Cell viability in kinase inhibitor library screening, A375 GP, 10μΜ ([3]; A375 GP, 10μΜ, 72 h)	Cell viability in kinase inhibitor library screening, A375 XP, 1μΜ ([4]; A375 XP, 1μΜ, 72 h)	Cell viability in kinase inhibitor library screening, A375 XP, 10μΜ ([4]; A375 XP, 10μΜ, 72 h)	Cell viability in kinase inhibitor library screening, IGR37 Parental, 1μΜ (IGR37 cells (parental); [7])	Cell viability in kinase inhibitor library screening, IGR37 Parental, 10μΜ (IGR37 cells (parental); [8])	Cell viability in kinase inhibitor library screening, IGR37 GP, 10μΜ ([5]; IGR37 GP, 10μΜ, 72 h) [%]	Cell viability in kinase inhibitor library screening, IGR37 GP, 1μΜ ([5]; IGR37 GP, 1μΜ, 72 h, in %)	Cell viability in kinase inhibitor library screening, IGR37 XP, 10μΜ ([6]; IGR37 XP, 10μΜ, 72 h) [%]	Cell viability in kinase inhibitor library screening, IGR37 XP, 1μΜ ([6]; IGR37 XP, 1μΜ, 72 h, in %)	also measured
CCCS(=O)(=O)Nc1ccc(F)c(C(=O)c2c[nH]c3ncc(-c4ccc(Cl)cc4)cc23)c1F [Vemurafenib (PLX4032)]	65.5	61.7	104.7	81.3	94.9	68.0	14.6	28.6	92.1	68.9	98.7	76.6	43.2	34.4	88.3	94.0	67.9	97.0	–
c1cncc(CN2CCC(n3ncc4c(N5CCOCC5)nc(-c5ccc6[nH]ccc6c5)nc43)CC2)c1 [WAY-600]	86.8	3.0	72.3	4.3	56.9	1.0	22.3	84.4	82.4	21.9	76.7	16.9	93.5	26.3	18.4	95.3	4.5	84.1	–
COc1cc2ncnc(Nc3ccc(O)c(Br)c3)c2cc1OC [WHI-P154]	–	–	–	–	–	–	–	–	–	–	–	–	–	–	–	–	–	–	cell viability, 501Mel Parental, 1μΜ (501Mel cells (parental); 501Mel Parental, 1μΜ, in %): 97.4; cell viability, 501Mel Parental, 10μΜ (501Mel cells (parental); 501Mel Parental, 10μΜ, in %): 93.8; cell viability, 501Mel GP, 1μΜ ([1]; 501Mel GP, 1μΜ, in %): 99.5; cell viability, 501Mel GP, 10μΜ ([1]; 501Mel GP, 10μΜ, in %): 77.2; cell viability, 501Mel XP, 1μΜ ([2]; 501Mel XP, 1μΜ, in %): 89.8; cell viability, 501Mel XP, 10μΜ ([2]; 501Mel XP, 10μΜ, in %): 63.6; cell viability, A375 Parental, 1μΜ (A375 cells (parental); A375 Parental, 1μΜ, 72 h, in %): 98.9; cell viability, A375 Parental, 10μΜ (A375 cells (parental); A375 Parental, 10μΜ, 72 h, in %): 86.7; cell viability, A375 GP, 1μΜ ([3]; A375 GP, 1μΜ, 72 h, in %): 96.6; cell viability, A375 GP, 10μΜ ([3]; A375 GP, 10μΜ, 72 h, in %): 85.7; cell viability, A375 XP, 1μΜ ([4]; A375 XP, 1μΜ, 72 h, in %): 105.6; cell viability, A375 XP, 10μΜ ([4]; A375 XP, 10μΜ, 72 h, in %): 90.7; cell viability, IGR37 Parental, 1μΜ (IGR37 cells (parental); [7]): 97.1; cell viability, IGR37 Parental, 10μΜ (IGR37 cells (parental); [8]): 93.0; cell viability, IGR37 GP, 10μΜ ([5]; IGR37 GP, 10μΜ, 72 h): 72.3%; cell viability, IGR37 GP, 1μΜ ([5]; IGR37 GP, 1μΜ, 72 h, in %): 94.4; cell viability, IGR37 XP, 10μΜ ([6]; IGR37 XP, 10μΜ, 72 h): 36.2%; cell viability, IGR37 XP, 1μΜ ([6]; IGR37 XP, 1μΜ, 72 h, in %): 91.6
C[C@H](NC(=O)/C(C#N)=C/c1cccc(Br)n1)c1ccccc1 [WP1066]	–	–	–	–	–	–	–	–	–	–	–	–	–	–	–	–	–	–	viability at 1 µM (501Mel cells (parental); Homo sapiens, read-out: cell viability, 501Mel Parental, 1μΜ): 96.9%; viability at 10 µM (501Mel cells (parental); Homo sapiens, read-out: cell viability, 501Mel Parental, 10μΜ): 0.369%; viability at 1 µM ([1]; Homo sapiens, read-out: cell viability, 501Mel GP, 1μΜ): 102%; viability at 10 µM ([1]; Homo sapiens, read-out: cell viability, 501Mel GP, 10μΜ): 1.2%; viability at 1 µM ([2]; Homo sapiens, read-out: cell viability, 501Mel XP, 1μΜ): 91.3%; viability at 10 µM ([2]; Homo sapiens, read-out: cell viability, 501Mel XP, 10μΜ): -0.0613%; viability at 1 µM (A375 cells (parental); Homo sapiens, A-375, 72 h, read-out: cell viability, A375 Parental, 1μΜ): 106%; viability at 10 µM (A375 cells (parental); Homo sapiens, A-375, 72 h, read-out: cell viability, A375 Parental, 10μΜ): 5.4%; viability at 1 µM ([3]; Homo sapiens, A-375, 72 h, read-out: cell viability, A375 GP, 1μΜ): 92.5%; viability at 10 µM ([3]; Homo sapiens, A-375, 72 h, read-out: cell viability, A375 GP, 10μΜ): 4.5%; viability at 1 µM ([4]; Homo sapiens, A-375, 72 h, read-out: cell viability, A375 XP, 1μΜ): 103%; viability at 10 µM ([4]; Homo sapiens, A-375, 72 h, read-out: cell viability, A375 XP, 10μΜ): 6.7%; viability at 1 µM (IGR37 cells (parental); Homo sapiens, IGR-37, 72 h, read-out: cell viability, IGR37 Parental, 1μΜ): 110%; viability at 10 µM (IGR37 cells (parental); Homo sapiens, IGR-37, 72 h, read-out: cell viability, IGR37 Parental, 10μΜ): 0.9%; viability at 1 µM ([5]; Homo sapiens, IGR-37, 72 h, read-out: cell viability, IGR37 GP, 1μΜ): 92.6%; viability at 10 µM ([5]; Homo sapiens, IGR-37, 72 h, read-out: cell viability, IGR37 GP, 10μΜ): 5.1%; viability at 1 µM ([6]; Homo sapiens, IGR-37, 72 h, read-out: cell viability, IGR37 XP, 1μΜ): 92.4%; viability at 10 µM ([6]; Homo sapiens, IGR-37, 72 h, read-out: cell viability, IGR37 XP, 10μΜ): 3.2%
COC(=O)Nc1ccc(-c2nc(N3CCOCC3)c3cnn(C4CCN(C(=O)OC)CC4)c3n2)cc1 [WYE-354]	85.1	21.3	76.5	16.5	63.3	8.7	24.6	84.7	80.7	21.5	76.7	19.6	82.1	28.9	31.6	85.9	10.6	82.2	–
COC(=O)Nc1ccc(-c2nc(N3CCOCC3)c3cnn(C4CCN(Cc5cccnc5)CC4)c3n2)cc1 [WYE-687]	65.3	9.6	55.7	10.7	83.5	7.5	21.5	74.1	67.7	19.9	59.8	19.2	75.9	26.2	24.9	77.7	7	62.5	–
